Measurements taken from the supplement of paper PMC7840683.
Structures can show the parent of a compound that is named as a salt. ± gives the standard deviation of the averaged measurements.

Tested on: HepaRG
Experiment: LDH release cytotoxicity, % of total lysis control; higher = more cytotoxic
Conditions: 48 h
Procedure, shortened: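 HepaRG cells from a single lot were plated on collagen I-coated 96-well plates and treated in duplicate for 48 h with eight-point half-log series of test chemicals, starting at 100 µM, in serum-free induction medium containing 0.5% DMSO. Total lysis wells were given 0.1% Triton X. LDH released into 50 µL of spent medium was measured as resorufin fluorescence with CytoTox-ONE on a Tecan Safire. Percent cytotoxicity was normalized to on-plate vehicle and total lysis controls and then averaged across duplicates.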

| Compound | LDH release cytotoxicity (0.03162 µM) | LDH release cytotoxicity (0.1 µM) | LDH release cytotoxicity (0.3162278 µM) | LDH release cytotoxicity (1 µM) | LDH release cytotoxicity (3.16228 µM) | LDH release cytotoxicity (10 µM) | LDH release cytotoxicity (31.6228 µM) | LDH release cytotoxicity (100 µM) | LDH release cytotoxicity (0.031623 µM) | LDH release cytotoxicity (0.316228 µM) |
| --- | --- | --- | --- | --- | --- | --- | --- | --- | --- | --- |
| CCC(=C(c1ccccc1)c1ccc(OCCN(C)C)cc1)c1ccccc1 [Tamoxifen] | -1.09 ± 0.46% | -0.968 ± 0.65% | -1.82 ± 0.89% | -2.26 ± 0.5% | -0.69 ± 0.34% | -0.919 ± 0.7% | 4.6 ± 0.9% | 79.7 ± 1.2% |  |  |
| O=C1N=CC(F)C(=O)N1 (configuration not stated) [5-Fluorouracil] | -1.55 ± 0.12% | -3.9 ± 2.7% | -0.836 ± 0.12% | -1.84 ± 0.21% | -1.66 ± 0.052% | -1.56 ± 0.38% | -1.98 ± 0.46% | 8.44 ± 1.2% |  |  |
| CC(C)NCC(O)c1ccc(O)c(O)c1 (configuration not stated) [Isoproterenol hydrochloride] | -1.33 ± 0.21% | -0.922 ± 5.4% | 0.959 ± 0.54% | 2.34 ± 1.1% | 2.16 ± 0.62% | -0.0702 ± 0.068% | -1.75 ± 0.25% | -1.61 ± 0.35% |  |  |
| CCCCOC(=O)c1ccc(O)cc1 [Butylparaben] | -1.57 ± 0.12% | -1.1 ± 0.021% | -1.42 ± 0.72% | -2.15 ± 1.2% | -2.51 ± 0.09% | -2.14 ± 0.23% | -2.11 ± 0.81% | -0.69 ± 0.9% |  |  |
| O=C1c2c(O)cccc2Cc2cccc(O)c21 [Anthralin] | -2.38 ± 0.42% | -0.784 ± 0.21% | -1.25 ± 0.88% | -0.891 ± 0.4% | -0.148 ± 1.6% | -1.12 ± 0.49% | -0.933 ± 0.26% | -0.256 ± 0.28% |  |  |
| Cc1[nH]nc2c1N=C(c1ccccc1Cl)c1cc([N+](=O)[O-])ccc1N2 | -0.496 ± 0.19% | -1.12 ± 0.7% | -0.522 ± 0.35% | 2.66 ± 0.69% | 5.42 ± 0.45% | 4.54 ± 0.36% | 7.8 ± 1.1% | 40.5 ± 3.8% |  |  |
| OC(CCl)CCl [1,3-Dichloro-2-propanol] | -0.194 ± 0.51% | -0.771 ± 0.2% | -1.03 ± 0.57% | -0.871 ± 0.15% | -0.223 ± 0.23% | -0.32 ± 0.6% | 0.161 ± 0.38% | -0.702 ± 0.99% |  |  |
| CC(C)(C)C(O)C(Oc1ccc(Cl)cc1)n1cncn1 (configuration not stated) [Triadimenol] | -1.62 ± 0.58% | -2.06 ± 0.53% | -1.64 ± 1.5% | -1.25 ± 0.42% | -1.3 ± 0.73% | -0.0607 ± 0.57% | -0.253 ± 0.65% | 0.57 ± 0.18% |  |  |
| CCOc1ccc(C(C)(C)COCc2cccc(Oc3ccccc3)c2)cc1 [Etofenprox] | -2.22 ± 0.67% | -3.48 ± 0.5% | -2.37 ± 0.096% | -2.59 ± 0.48% | -2.77 ± 0.28% | -2.63 ± 0.86% | -2.47 ± 0.33% | -1.82 ± 0.12% |  |  |
| CCCCN(CCCC)CCCC [Tributylamine] | -2.12 ± 0.98% | -1.33 ± 1.8% | -2.67 ± 0.73% | -2.57 ± 1% | -2.21 ± 0.52% | -2.383 ± 0.0034% | -2.97 ± 0.18% | 3.29 ± 1.9% |  |  |
| Nc1nc(N)c2nc(CNc3ccc(C(=O)NC(CCC(=O)O)C(=O)O)cc3)cnc2n1 (configuration not stated) [Aminopterin] | -11.8 ± 0.096% | -7.61 ± 0.6% | -7.45 ± 1.3% | -7.83 ± 0.65% | -7.31 ± 0.2% | -9.44 ± 0.67% | -9.84 ± 0.9% | -9.19 ± 0.42% |  |  |
| ClCC(Cl)CCl [1,2,3-Trichloropropane] | -1.72 ± 1.1% | -1.57 ± 0.41% | -1.6 ± 0.79% | -0.683 ± 0.4% | -0.233 ± 1.1% | -1.91 ± 0.066% | -1.01 ± 0.093% | 0.236 ± 0.36% |  |  |
| c1ccc2c(c1)Cc1ccccc1-2 [Fluorene] | -1.56 ± 0.24% | -1 ± 0.37% | -0.941 ± 0.29% | -0.74 ± 0.44% | -0.5867 ± 0.0032% | -1.05 ± 0.38% | -0.324 ± 0.11% | -0.2 ± 0.14% |  |  |
| CCCCCCOC(=O)c1ccccc1C(=O)OCCCCCC [Dihexyl phthalate] | -0.113 ± 0.13% | -2.29 ± 0.55% | -1.07 ± 0.072% | -1.78 ± 0.38% | -2.06 ± 0.53% | 4.57 ± 0.29% | 25.3 ± 3.5% | 81 ± 8.9% |  |  |
| CCOC1Oc2ccc(OS(C)(=O)=O)cc2C1(C)C (configuration not stated) [Ethofumesate] |  | -1.58 ± 2.8% |  | -3.38 ± 0.38% | -2.65 ± 1.5% | -3.76 ± 1.5% | -3.45 ± 0.47% | 12.4 ± 2.7% | -1.31 ± 0.47% | -1.7 ± 0.31% |
| OC12N=C(c3ccccc3)SC1Cc1cc(Cl)ccc12 (configuration not stated) [HMR1426] | 0.113 ± 0.048% | -0.325 ± 2% | 2.01 ± 0.36% | 1.42 ± 1.4% | 3.44 ± 0.72% | 4.43 ± 0.51% | 3.89 ± 0.3% | 8.06 ± 0.31% |  |  |
| Cc1cc(Cl)ccc1OCC(=O)O [MCPA] | -0.121 ± 0.17% | -0.914 ± 0.53% | -0.511 ± 0.28% | -0.689 ± 0.68% | -0.578 ± 0.24% | -0.154 ± 0.47% | 0.865 ± 0.061% | 1.22 ± 0.86% |  |  |
| CCCC(CCC)C(=O)O [Valproic acid] |  | -2.27 ± 0.28% |  | -2.73 ± 0.65% | -1.85 ± 0.16% | -2.14 ± 2% | -1.38 ± 0.12% | -0.176 ± 0.59% | -0.788 ± 0.37% | -1.27 ± 1.4% |
| CCOS(=O)(=O)OCC [Diethyl sulfate] | -1.93 ± 0.2% | -1.47 ± 0.76% | -1.68 ± 0.27% | -2.05 ± 0.13% | -1.61 ± 0.19% | -1.77 ± 0.24% | -1.5 ± 0.21% | 0.71 ± 0.71% |  |  |
